Assay results from patent US20250108037A1, “COMPOSITION CONTAINING ERGOTHIONEINE FOR SUPPRESSING OR PREVENTING INNER EAR HEARING LOSS” (MITSUBISHI GAS CHEMICAL COMPANY, INC., priority 2021, published 2025).

Tested on: C57BL/6J mouse, age-related hearing loss model
Assay: ABR (auditory brainstem response) test in age-related hearing loss model mice after oral administration once a day
Format: in vivo
Conditions: given as yeast extract powder

C[N+](C)(C)[C@@H](Cc1c[nH]c(=S)[nH]1)C(=O)[O-] [ergothioneine, Ergothioneine]
hearing loss suppression effect (Example 2, Tables 5 and 6, 24 and 32 kHz): confirmed at either frequency, but was particularly remarkable at 24 kHz | progression of hearing loss (conclusion from the ABR results): delayed
